≈ marks a conversion by molar mass, not a printed value. Calls of active or inactive are those of the source. The rule behind the calls is not given here.
What was measured:
Assay type in all cases: functional
Escherichia coli = test: Antimicrobial activity against Escherichia coli ATCC 25922 assessed as growth inhibition after 24 hr by NCCLS broth dilution method
Pseudomonas aeruginosa = test: Antimicrobial activity against Pseudomonas aeruginosa ATCC 27853 assessed as growth inhibition after 24 hr by NCCLS broth dilution method
Bacillus subtilis = test: Antimicrobial activity against Bacillus subtilis ATCC 6633 assessed as growth inhibition after 24 hr by NCCLS broth dilution method
Staphylococcus aureus = test: Antimicrobial activity against Staphylococcus aureus ATCC 25923 assessed as growth inhibition after 24 hr by NCCLS broth dilution method

## O=C(Nc1ccccc1)Nc1ccc2ncnc(Sc3nnc(-c4cccnc4)o3)c2c1
Escherichia coli
  MIC: inactive
Escherichia coli; ATCC 25922, 24 h
  MIC: 25 µg/mL (≈ 56.6 µM)
Pseudomonas aeruginosa
  MIC: inactive
Pseudomonas aeruginosa; ATCC 27853, 24 h
  MIC: 50 µg/mL (≈ 113 µM)
Bacillus subtilis
  MIC: inactive
Bacillus subtilis; ATCC 6633, 24 h
  MIC: 25 µg/mL (≈ 56.6 µM)
Staphylococcus aureus
  MIC: inactive
Staphylococcus aureus; ATCC 25923, 24 h
  MIC: 12.5 µg/mL (≈ 28.3 µM)

## Cc1cccc(NC(=S)Nc2ccc3ncnc(Sc4nnc(-c5cccnc5)o4)c3c2)c1
Escherichia coli
  MIC: inactive
Escherichia coli; ATCC 25922, 24 h
  MIC: 50 µg/mL (≈ 106 µM)
Pseudomonas aeruginosa
  MIC: inactive
Pseudomonas aeruginosa; ATCC 27853, 24 h
  MIC: 100 µg/mL (≈ 212 µM)
Bacillus subtilis
  MIC: inactive
Bacillus subtilis; ATCC 6633, 24 h
  MIC: 75 µg/mL (≈ 159 µM)
Staphylococcus aureus
  MIC: inactive
Staphylococcus aureus; ATCC 25923, 24 h
  MIC: 75 µg/mL (≈ 159 µM)

## Cc1cccc(NC(=O)Nc2cc3c(Sc4nnc(-c5cccnc5)o4)ncnc3cc2N2CCN(C)CC2)c1
Escherichia coli
  MIC: inactive
Escherichia coli; ATCC 25922, 24 h
  MIC: 25 µg/mL (≈ 45.2 µM)
Pseudomonas aeruginosa
  MIC: inactive
Pseudomonas aeruginosa; ATCC 27853, 24 h
  MIC: 50 µg/mL (≈ 90.3 µM)
Bacillus subtilis
  MIC: inactive
Bacillus subtilis; ATCC 6633, 24 h
  MIC: 25 µg/mL (≈ 45.2 µM)
Staphylococcus aureus
  MIC: inactive
Staphylococcus aureus; ATCC 25923, 24 h
  MIC: 50 µg/mL (≈ 90.3 µM)

## O=C(Nc1ccc2ncnc(Sc3nnc(-c4cccnc4)o3)c2c1)NC1CCCCC1
Escherichia coli
  MIC: inactive
Escherichia coli; ATCC 25922, 24 h
  MIC: 50 µg/mL (≈ 112 µM)
Pseudomonas aeruginosa
  MIC: inactive
Pseudomonas aeruginosa; ATCC 27853, 24 h
  MIC: 100 µg/mL (≈ 223 µM)
Bacillus subtilis
  MIC: inactive
Bacillus subtilis; ATCC 6633, 24 h
  MIC: 50 µg/mL (≈ 112 µM)
Staphylococcus aureus
  MIC: inactive
Staphylococcus aureus; ATCC 25923, 24 h
  MIC: 25 µg/mL (≈ 55.9 µM)

## Cc1ccc(NC(=O)Nc2ccc3ncnc(Sc4nnc(-c5cccnc5)o4)c3c2)cc1
Escherichia coli
  MIC: inactive
Escherichia coli; ATCC 25922, 24 h
  MIC: 50 µg/mL (≈ 110 µM)
Pseudomonas aeruginosa
  MIC: inactive
Pseudomonas aeruginosa; ATCC 27853, 24 h
  MIC: 12.5 µg/mL (≈ 27.4 µM)
Bacillus subtilis
  MIC: inactive
Bacillus subtilis; ATCC 6633, 24 h
  MIC: 75 µg/mL (≈ 165 µM)
Staphylococcus aureus
  MIC: inactive
Staphylococcus aureus; ATCC 25923, 24 h
  MIC: 12.5 µg/mL (≈ 27.4 µM)

## CN1CCN(c2cc3ncnc(Sc4nnc(-c5cccnc5)o4)c3cc2NC(=O)Nc2cccc(Cl)c2)CC1
Escherichia coli
  MIC: inactive
Escherichia coli; ATCC 25922, 24 h
  MIC: 50 µg/mL (≈ 87.1 µM)
Pseudomonas aeruginosa
  MIC: inactive
Pseudomonas aeruginosa; ATCC 27853, 24 h
  MIC: 25 µg/mL (≈ 43.5 µM)
Bacillus subtilis
  MIC: inactive
Bacillus subtilis; ATCC 6633, 24 h
  MIC: 12.5 µg/mL (≈ 21.8 µM)
Staphylococcus aureus
  MIC: inactive
Staphylococcus aureus; ATCC 25923, 24 h
  MIC: 6.25 µg/mL (≈ 10.9 µM)

## Cc1ccccc1NC(=O)Nc1ccc2ncnc(Sc3nnc(-c4cccnc4)o3)c2c1
Escherichia coli
  MIC: inactive
Escherichia coli; ATCC 25922, 24 h
  MIC: 25 µg/mL (≈ 54.9 µM)
Pseudomonas aeruginosa
  MIC: inactive
Pseudomonas aeruginosa; ATCC 27853, 24 h
  MIC: 75 µg/mL (≈ 165 µM)
Bacillus subtilis
  MIC: inactive
Bacillus subtilis; ATCC 6633, 24 h
  MIC: 50 µg/mL (≈ 110 µM)
Staphylococcus aureus
  MIC: inactive
Staphylococcus aureus; ATCC 25923, 24 h
  MIC: 25 µg/mL (≈ 54.9 µM)

## O=C(Nc1ccc2ncnc(Sc3nnc(-c4cccnc4)o3)c2c1)Nc1ccccc1Cl
Escherichia coli
  MIC: inactive
Escherichia coli; ATCC 25922, 24 h
  MIC: 25 µg/mL (≈ 52.5 µM)
Pseudomonas aeruginosa
  MIC: inactive
Pseudomonas aeruginosa; ATCC 27853, 24 h
  MIC: 75 µg/mL (≈ 158 µM)
Bacillus subtilis
  MIC: inactive
Bacillus subtilis; ATCC 6633, 24 h
  MIC: 12.5 µg/mL (≈ 26.3 µM)
Staphylococcus aureus
  MIC: inactive
Staphylococcus aureus; ATCC 25923, 24 h
  MIC: 25 µg/mL (≈ 52.5 µM)

## S=C(Nc1cccc(Cl)c1)Nc1ccc2ncnc(Sc3nnc(-c4cccnc4)o3)c2c1
Escherichia coli
  MIC: inactive
Escherichia coli; ATCC 25922, 24 h
  MIC: 50 µg/mL (≈ 102 µM)
Pseudomonas aeruginosa
  MIC: inactive
Pseudomonas aeruginosa; ATCC 27853, 24 h
  MIC: 75 µg/mL (≈ 152 µM)
Bacillus subtilis
  MIC: inactive
Bacillus subtilis; ATCC 6633, 24 h
  MIC: 25 µg/mL (≈ 50.8 µM)
Staphylococcus aureus
  MIC: inactive
Staphylococcus aureus; ATCC 25923, 24 h
  MIC: 6.25 µg/mL (≈ 12.7 µM)

## CN1CCN(c2cc3ncnc(Sc4nnc(-c5cccnc5)o4)c3cc2NC(=O)Nc2ccc(Cl)cc2)CC1
Escherichia coli
  MIC: inactive
Escherichia coli; ATCC 25922, 24 h
  MIC: 12.5 µg/mL (≈ 21.8 µM)
Pseudomonas aeruginosa
  MIC: inactive
Pseudomonas aeruginosa; ATCC 27853, 24 h
  MIC: 50 µg/mL (≈ 87.1 µM)
Bacillus subtilis
  MIC: inactive
Bacillus subtilis; ATCC 6633, 24 h
  MIC: 6.25 µg/mL (≈ 10.9 µM)
Staphylococcus aureus
  MIC: inactive
Staphylococcus aureus; ATCC 25923, 24 h
  MIC: 25 µg/mL (≈ 43.5 µM)
